Measured values as given in ChEMBL document CHEMBL5696442, “Discovery of type II inhibitors of TGFβ-activated kinase 1 (TAK1) and mitogen-activated protein kinase kinase kinase kinase 2 (MAP4K2)” (J Med Chem, 2015).
Activity calls are given as the source filed them. The calls are words filed in the database; no cut-off is given here.

Columns and labels:
[1] = target: Ribosomal protein S6 kinase delta-1 (Homo sapiens) (UniProt Q96S38); assay: Inhibition of RSKL1 domain1 Protein Kinase Domain labeling site in human Huh-7 cell lysate at 1 uM by KiNativ Profiling analysis relative to control; assay type: subcellular
Sequence of Ribosomal protein S6 kinase delta-1 (Homo sapiens) (Q96S38 whole entry, the tested form may be a part): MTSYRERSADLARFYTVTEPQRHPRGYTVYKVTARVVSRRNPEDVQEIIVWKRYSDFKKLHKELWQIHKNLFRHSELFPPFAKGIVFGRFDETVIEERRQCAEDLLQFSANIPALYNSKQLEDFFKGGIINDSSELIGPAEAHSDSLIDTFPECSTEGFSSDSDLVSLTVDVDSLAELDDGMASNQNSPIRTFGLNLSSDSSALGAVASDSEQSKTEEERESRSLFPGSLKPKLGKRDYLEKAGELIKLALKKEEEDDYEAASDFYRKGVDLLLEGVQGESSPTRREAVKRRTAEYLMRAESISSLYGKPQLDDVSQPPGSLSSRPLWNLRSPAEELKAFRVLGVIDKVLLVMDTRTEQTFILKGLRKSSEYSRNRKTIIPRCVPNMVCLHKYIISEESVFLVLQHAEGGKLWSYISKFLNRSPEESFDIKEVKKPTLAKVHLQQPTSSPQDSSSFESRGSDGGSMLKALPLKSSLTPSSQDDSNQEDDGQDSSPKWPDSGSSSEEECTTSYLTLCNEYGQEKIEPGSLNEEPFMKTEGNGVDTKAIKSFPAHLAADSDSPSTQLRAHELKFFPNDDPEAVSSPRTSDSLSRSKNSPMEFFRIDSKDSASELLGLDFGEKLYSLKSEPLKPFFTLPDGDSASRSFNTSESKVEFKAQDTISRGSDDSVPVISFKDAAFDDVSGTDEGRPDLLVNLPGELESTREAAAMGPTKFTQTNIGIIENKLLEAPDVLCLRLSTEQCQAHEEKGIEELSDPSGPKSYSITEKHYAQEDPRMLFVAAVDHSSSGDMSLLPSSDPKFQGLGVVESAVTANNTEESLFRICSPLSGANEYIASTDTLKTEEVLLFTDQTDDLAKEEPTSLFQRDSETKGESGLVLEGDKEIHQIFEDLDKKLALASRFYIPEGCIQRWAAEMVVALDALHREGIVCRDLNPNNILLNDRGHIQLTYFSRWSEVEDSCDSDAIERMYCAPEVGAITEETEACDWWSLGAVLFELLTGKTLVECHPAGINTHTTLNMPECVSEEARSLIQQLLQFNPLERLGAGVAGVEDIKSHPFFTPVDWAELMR

[2] = target: Serine/threonine-protein kinase VRK2 (Homo sapiens) (UniProt Q86Y07); assay: Inhibition of VRK2 Lys2 labeling site in human Huh-7 cell lysate at 1 uM by KiNativ Profiling analysis relative to control; assay type: subcellular
Sequence of Serine/threonine-protein kinase VRK2 (Homo sapiens) (Q86Y07 whole entry): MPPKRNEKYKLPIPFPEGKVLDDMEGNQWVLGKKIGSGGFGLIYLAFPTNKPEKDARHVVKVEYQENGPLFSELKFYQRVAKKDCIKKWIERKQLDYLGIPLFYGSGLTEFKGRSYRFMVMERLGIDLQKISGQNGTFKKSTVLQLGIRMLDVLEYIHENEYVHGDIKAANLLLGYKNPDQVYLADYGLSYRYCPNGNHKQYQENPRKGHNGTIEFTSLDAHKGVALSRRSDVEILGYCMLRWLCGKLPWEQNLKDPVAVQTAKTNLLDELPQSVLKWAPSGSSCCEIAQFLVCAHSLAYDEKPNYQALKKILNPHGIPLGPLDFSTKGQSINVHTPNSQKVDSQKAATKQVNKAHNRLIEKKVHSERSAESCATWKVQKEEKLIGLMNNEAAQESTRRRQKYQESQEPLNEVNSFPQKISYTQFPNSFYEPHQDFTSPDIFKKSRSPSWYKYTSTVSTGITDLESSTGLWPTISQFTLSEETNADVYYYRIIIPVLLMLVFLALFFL

[3] = target: Activin receptor type-1 (Homo sapiens) (UniProt Q04771); assay: Inhibition of ACVR1 (unknown origin) at 10 uM by Ambit Kinomescan binding assay
[4] = target: T1, Aurora kinase A (Homo sapiens) (UniProt O14965); assay: Inhibition of AURKA (unknown origin) at 10 uM by Ambit Kinomescan binding assay
T1 sequence (whole entry): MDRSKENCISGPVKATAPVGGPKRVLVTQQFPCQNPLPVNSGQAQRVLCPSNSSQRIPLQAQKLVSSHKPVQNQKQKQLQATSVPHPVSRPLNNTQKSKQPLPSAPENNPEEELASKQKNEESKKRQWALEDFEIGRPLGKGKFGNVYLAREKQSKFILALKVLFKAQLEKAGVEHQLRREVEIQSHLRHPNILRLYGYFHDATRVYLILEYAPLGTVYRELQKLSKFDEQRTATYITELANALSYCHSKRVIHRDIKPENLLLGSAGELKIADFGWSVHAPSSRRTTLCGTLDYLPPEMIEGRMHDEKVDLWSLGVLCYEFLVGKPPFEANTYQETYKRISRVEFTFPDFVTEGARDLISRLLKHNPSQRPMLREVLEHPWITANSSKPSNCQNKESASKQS

[5] = target: Interferon-induced, double-stranded RNA-activated protein kinase (Homo sapiens) (UniProt P19525); assay: Inhibition of PKR Lys2 labeling site in human A-375 cells at 0.05 uM by KiNativ Profiling analysis relative to control; assay type: cell-based
Sequence of Interferon-induced, double-stranded RNA-activated protein kinase (Homo sapiens) (P19525 whole entry): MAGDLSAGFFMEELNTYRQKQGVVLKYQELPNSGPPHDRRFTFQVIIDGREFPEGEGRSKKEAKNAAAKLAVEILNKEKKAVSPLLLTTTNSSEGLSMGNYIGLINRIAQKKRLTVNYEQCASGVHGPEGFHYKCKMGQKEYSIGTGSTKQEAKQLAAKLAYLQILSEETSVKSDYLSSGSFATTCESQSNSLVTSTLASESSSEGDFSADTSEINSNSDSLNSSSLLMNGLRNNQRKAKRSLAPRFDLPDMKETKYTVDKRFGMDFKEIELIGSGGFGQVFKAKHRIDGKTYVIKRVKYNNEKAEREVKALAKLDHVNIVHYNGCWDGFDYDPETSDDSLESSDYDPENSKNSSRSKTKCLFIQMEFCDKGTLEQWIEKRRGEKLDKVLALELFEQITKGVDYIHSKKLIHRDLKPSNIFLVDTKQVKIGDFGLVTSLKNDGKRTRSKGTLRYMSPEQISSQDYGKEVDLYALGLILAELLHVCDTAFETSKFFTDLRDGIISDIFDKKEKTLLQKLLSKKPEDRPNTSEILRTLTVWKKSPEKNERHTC

[6] = target: 5'-AMP-activated protein kinase catalytic subunit alpha-1 (Homo sapiens) (UniProt Q13131); assay: Inhibition of AMPKa1 ATP labeling site in human Huh-7 cells at 10 uM by KiNativ Profiling analysis relative to control; assay type: cell-based
Sequence of 5'-AMP-activated protein kinase catalytic subunit alpha-1 (Homo sapiens) (Q13131 whole entry, looked up): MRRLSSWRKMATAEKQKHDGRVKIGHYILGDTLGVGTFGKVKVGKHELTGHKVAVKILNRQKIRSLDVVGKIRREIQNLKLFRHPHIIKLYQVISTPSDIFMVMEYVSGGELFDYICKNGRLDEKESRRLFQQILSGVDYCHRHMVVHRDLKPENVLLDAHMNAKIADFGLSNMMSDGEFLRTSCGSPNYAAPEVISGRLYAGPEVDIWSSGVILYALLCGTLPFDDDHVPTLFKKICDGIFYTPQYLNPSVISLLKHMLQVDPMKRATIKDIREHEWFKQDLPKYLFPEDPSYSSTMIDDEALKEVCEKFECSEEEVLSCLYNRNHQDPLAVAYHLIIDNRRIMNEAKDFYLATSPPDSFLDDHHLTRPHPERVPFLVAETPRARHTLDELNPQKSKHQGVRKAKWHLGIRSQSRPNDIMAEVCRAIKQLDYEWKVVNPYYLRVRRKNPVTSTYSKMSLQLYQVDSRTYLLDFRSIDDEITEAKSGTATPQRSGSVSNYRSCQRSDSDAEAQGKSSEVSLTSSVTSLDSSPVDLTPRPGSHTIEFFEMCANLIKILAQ

[7] = target: T2, Dual specificity mitogen-activated protein kinase kinase 4 (Homo sapiens) (UniProt P45985); assay: Inhibition of MAP2K4 K2 labeling site harbouring DIKPSNILLDR in human Huh-7 cells at 10 uM by KiNativ Profiling analysis relative to control; assay type: cell-based
T2 sequence (whole entry): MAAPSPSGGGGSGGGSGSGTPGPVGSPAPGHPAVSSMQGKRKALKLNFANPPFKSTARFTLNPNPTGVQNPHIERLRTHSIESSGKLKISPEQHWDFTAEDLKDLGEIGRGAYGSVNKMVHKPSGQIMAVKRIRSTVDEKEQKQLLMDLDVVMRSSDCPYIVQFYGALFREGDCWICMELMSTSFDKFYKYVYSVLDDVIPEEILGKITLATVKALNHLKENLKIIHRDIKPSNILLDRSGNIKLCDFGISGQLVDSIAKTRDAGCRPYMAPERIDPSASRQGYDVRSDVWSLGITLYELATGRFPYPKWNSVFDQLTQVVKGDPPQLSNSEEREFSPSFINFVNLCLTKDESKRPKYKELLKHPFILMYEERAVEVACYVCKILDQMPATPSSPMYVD

[8] = target: T3, Phosphatidylinositol 5-phosphate 4-kinase type-2 gamma (Homo sapiens) (UniProt Q8TBX8); assay: Inhibition of PIP5K2C C2 labeling site in human Huh-7 cells at 10 uM by KiNativ Profiling analysis relative to control; assay type: cell-based
T3 sequence (whole entry): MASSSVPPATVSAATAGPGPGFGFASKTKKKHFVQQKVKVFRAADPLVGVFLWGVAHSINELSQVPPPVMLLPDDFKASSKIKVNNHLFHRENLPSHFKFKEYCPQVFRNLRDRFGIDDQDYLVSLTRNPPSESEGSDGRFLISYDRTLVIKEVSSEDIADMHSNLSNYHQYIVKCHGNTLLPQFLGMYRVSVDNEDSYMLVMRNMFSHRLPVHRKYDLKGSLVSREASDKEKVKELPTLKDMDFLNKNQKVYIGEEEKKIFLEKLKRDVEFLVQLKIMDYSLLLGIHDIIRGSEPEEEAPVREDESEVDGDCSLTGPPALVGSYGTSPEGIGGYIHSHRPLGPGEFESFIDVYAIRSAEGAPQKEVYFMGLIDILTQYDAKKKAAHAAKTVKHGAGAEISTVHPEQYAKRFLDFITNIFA

[9] = target: Cyclin-dependent kinase 13 (Homo sapiens) (UniProt Q14004); assay: Inhibition of CHED K2 labeling site in human Huh-7 cells at 1 uM by KiNativ Profiling analysis relative to control; assay type: cell-based
[10] = target: Serine/threonine-protein kinase 26 (Homo sapiens) (UniProt Q9P289); assay: Inhibition of MST4 ATP labeling site in human Huh-7 cells at 1 uM by KiNativ Profiling analysis relative to control; assay type: cell-based
Sequence of Serine/threonine-protein kinase 26 (Homo sapiens) (Q9P289 2-416 limits assumed): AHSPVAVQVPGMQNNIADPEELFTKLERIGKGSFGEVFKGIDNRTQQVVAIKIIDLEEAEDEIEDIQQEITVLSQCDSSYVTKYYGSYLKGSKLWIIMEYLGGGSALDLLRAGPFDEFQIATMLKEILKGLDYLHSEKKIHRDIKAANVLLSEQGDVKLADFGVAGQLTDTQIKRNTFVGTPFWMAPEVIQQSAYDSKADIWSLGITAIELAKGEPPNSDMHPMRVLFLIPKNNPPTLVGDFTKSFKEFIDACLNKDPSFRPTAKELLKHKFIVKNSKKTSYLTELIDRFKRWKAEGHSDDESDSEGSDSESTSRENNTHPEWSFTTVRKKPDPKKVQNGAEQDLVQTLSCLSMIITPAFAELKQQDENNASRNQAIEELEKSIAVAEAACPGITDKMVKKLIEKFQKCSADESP

[11] = target: Serine/threonine-protein kinase MARK1 (Homo sapiens) (UniProt Q9P0L2); assay: Inhibition of MARK1 Lys2 labeling site in human A-375 cells at 5 uM by KiNativ Profiling analysis relative to control; assay type: cell-based
[12] = target: Serine/threonine-protein kinase 38 (Homo sapiens) (UniProt Q15208); assay: Inhibition of NDR1 ACT labeling site in human A-375 cells at 5 uM by KiNativ Profiling analysis relative to control; assay type: cell-based
Sequence of Serine/threonine-protein kinase 38 (Homo sapiens) (Q15208 2-465 limits assumed): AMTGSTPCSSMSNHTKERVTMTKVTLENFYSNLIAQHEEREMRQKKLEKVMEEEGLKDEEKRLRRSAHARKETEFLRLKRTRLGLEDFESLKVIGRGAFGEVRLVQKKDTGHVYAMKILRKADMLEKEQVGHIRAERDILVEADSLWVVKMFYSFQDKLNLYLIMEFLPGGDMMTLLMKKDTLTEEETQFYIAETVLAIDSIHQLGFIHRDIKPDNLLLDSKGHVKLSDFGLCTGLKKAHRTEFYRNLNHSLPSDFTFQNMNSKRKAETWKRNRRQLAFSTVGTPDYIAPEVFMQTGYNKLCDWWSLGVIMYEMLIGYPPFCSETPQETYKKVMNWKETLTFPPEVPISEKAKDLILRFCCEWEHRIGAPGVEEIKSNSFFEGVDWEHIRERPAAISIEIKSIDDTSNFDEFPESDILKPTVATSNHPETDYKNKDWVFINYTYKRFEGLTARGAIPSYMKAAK

[13] = target: Phosphatidylinositol 4,5-bisphosphate 3-kinase catalytic subunit alpha isoform (Homo sapiens) (UniProt P42336); assay: Inhibition of PIK3CA ATP labeling site in human A-375 cells at 5 uM by KiNativ Profiling analysis relative to control; assay type: cell-based
[14] = target: DNA-PK/Ku70/Ku85 (Homo sapiens) (UniProt P78527+P12956+P13010); assay: Inhibition of DNAPK ATP labeling site harbouring KGGSWIQEINVAEK in human A-375 cells at 0.05 uM by KiNativ Profiling analysis relative to control; assay type: cell-based
[15] = Inhibition of p70S6K Lys2 labeling site in human A-375 cells at 0.5 uM by KiNativ Profiling analysis relative to control; conditions: condition cancer
[16] = target: Insulin receptor-related protein (Homo sapiens) (UniProt P14616); assay: Inhibition of INSRR (unknown origin) at 1 uM by Ambit Kinomescan binding assay relative to control; values are per cent of control
Sequence of Insulin receptor-related protein (Homo sapiens) (P14616 whole entry, looked up): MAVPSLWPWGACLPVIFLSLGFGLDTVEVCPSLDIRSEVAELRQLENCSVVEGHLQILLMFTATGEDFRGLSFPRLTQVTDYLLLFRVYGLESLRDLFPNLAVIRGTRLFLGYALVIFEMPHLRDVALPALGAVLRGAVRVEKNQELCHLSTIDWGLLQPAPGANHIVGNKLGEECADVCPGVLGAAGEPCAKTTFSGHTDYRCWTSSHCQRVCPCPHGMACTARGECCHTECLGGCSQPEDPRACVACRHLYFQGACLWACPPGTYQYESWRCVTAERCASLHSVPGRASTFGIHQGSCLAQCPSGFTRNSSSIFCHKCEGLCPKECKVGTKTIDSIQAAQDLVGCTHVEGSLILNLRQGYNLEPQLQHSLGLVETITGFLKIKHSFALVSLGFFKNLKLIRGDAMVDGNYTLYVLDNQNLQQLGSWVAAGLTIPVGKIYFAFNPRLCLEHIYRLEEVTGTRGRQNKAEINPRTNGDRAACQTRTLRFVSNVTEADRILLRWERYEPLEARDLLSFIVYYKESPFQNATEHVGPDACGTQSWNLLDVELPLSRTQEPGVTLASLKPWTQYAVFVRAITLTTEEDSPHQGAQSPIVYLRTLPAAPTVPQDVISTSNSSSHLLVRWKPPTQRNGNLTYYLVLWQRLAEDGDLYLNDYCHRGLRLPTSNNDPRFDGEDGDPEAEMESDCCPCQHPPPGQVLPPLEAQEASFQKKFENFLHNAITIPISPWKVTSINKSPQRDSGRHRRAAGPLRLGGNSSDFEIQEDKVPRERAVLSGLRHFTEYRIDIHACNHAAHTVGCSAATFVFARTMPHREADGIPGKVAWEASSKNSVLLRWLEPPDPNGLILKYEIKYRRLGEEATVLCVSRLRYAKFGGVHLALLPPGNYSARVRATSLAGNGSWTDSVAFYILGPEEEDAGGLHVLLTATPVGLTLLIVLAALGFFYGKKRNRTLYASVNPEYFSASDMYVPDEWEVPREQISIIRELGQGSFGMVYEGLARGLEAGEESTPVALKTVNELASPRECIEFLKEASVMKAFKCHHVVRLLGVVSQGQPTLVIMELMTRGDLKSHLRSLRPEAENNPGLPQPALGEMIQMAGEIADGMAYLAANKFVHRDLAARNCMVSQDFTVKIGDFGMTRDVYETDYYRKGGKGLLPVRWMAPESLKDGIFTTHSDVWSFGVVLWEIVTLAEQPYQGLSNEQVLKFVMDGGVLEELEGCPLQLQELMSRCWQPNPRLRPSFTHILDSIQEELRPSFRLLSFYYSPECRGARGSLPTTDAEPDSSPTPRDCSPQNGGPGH

## CNc1cc(Oc2cc(C(=O)Nc3cc(N4CCN(C)CC4)cc(C(F)(F)F)c3)ccc2C)ncn1
[1]
  inhibition: 15.7%
[2]
  inhibition: -0.9%

## CCN1CCN(Cc2ccc(NC(=O)c3ccc(C)c(Oc4ccnc5[nH]ccc45)c3)cc2C(F)(F)F)CC1
[3]
  inhibition: inactive
[4]
  inhibition: inactive
[5]
  inhibition: -8.1%
[6]
  inhibition: 14%
[7]
  inhibition: -4.6%
[8]
  inhibition: 2.3%
[9]
  inhibition: inactive
[10]
  inhibition: 18%

## CCN1CCN(Cc2ccc(NC(=O)c3ccc(C)c(/C=C/c4cnc5[nH]ccc5c4OC)c3)cc2C(F)(F)F)CC1
[11]
  inhibition: 13%
[12]
  inhibition: -2.6%
[13]
  inhibition: 56.9%
[14]
  inhibition: 17.7%
[15]
  inhibition at 0.5 µM: -32.9%
[16]
  residual activity: 100%
